Molecules are shown by their SMILES.

In the assay the target is T1, Human glucocorticoid receptors (Homo sapiens, UniProt P04150).
T1 construct: made in house; host or cells: Sf9 insect cells, recombinant baculovirus (BAC-TO-BAC)
T1 sequence (P04150 1-777): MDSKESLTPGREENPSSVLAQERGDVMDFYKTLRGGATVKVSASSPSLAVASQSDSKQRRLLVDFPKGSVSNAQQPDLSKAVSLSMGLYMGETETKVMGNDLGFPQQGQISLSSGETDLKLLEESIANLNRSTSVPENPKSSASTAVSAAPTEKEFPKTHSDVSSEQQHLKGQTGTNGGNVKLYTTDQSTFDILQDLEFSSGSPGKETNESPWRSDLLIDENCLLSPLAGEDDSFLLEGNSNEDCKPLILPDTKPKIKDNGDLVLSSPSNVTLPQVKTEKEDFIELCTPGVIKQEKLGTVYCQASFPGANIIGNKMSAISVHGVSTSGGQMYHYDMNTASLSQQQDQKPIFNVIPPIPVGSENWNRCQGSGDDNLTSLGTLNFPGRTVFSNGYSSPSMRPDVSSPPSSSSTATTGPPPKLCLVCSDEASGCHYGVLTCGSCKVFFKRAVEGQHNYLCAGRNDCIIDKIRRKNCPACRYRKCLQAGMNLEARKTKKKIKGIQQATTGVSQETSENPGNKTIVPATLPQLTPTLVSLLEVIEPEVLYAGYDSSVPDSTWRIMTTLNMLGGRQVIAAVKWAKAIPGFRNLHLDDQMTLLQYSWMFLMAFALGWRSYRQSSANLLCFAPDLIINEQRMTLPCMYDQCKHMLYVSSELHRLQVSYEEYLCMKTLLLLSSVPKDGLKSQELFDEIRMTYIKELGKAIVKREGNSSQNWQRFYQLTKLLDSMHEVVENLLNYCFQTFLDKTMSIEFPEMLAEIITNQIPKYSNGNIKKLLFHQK
Put plainly: Radioligand filter binding assay, displacement of 3[H]-dexamethasone from hGR. As to conditions: read-out: GR Binding (% Inhibition at 1.7 μM). From the text: Dexamethasone hereafter referred to as dex was purchased from SIGMA. […] Human glucocorticoid receptors were extracted from Sf9 cells infected with a recombinant baculovirus transfer vector containing the cloned hGR genes. Recombinant baculovirus was generated utilizing the BAC-TO-BAC expression system (Life Technologies) in accordance to instruction from the supplier. The hGR coding sequences were cloned into a baculovirus transfer vector by standard techniques. The recombinant baculoviruses expressing hGR were amplified and used to infect Sf9 cells. Infected cells were harvested 48 hrs post infection. […] The concentration of hGR in the extract was measured as specific ^3[H]-dex binding with the G25-assay as described in J. Steroid Biochem. Molec. […] The extract was aliquoted and stored at −70° C.
The filter binding assay: Dilution series of the test compounds and dex as reference were made from 10 mM (1 mM dex) stock solutions in DMSO. 10 μl of the dilutions was added in duplicates to the wells. The cell extracts were diluted 10 fold in EPMo+MTG buffer (1 mM EDTA, HPO4 20 mM (pH8), 6 mM MTG). […] 110 μl of the diluted ^3[H]-dex were added to the wells. The final concentration of hGR in the experiment was estimated to 1 nM. All preparations were made in […] on ice and with +4° C. temperated buffers. The plates were incubated over night at +4° C. (15-20 hours).
The incubation was stopped by filtration through GF/B filter on the Tomtec Cellharvester. The filtration on the Tomtec Cellharvester was programmed as follows: 1) Preparation before filtration with EP buffer (1 mM EDTA 20 mM HPO4 (pH8)) 2×[Wash/Asp 0.6 sec., Asp 0.5 sec.]; 2) Prewet of GF/B filter with EP+PEI buffer (EP buffer, 0.3% Polyethylenimine) [Asp 0.8 sec.]; 3) Filtration/harvesting of the 96-well incubation plate 3×[Wash/Asp 0.6 sec., Asp 0.5 sec.]. The GF/B filter was dried for at least 1 hour at 65° C. A MeltiLex scintillation wax was melted onto the filter with the Microsealer. The filter was placed in a samplebag, which was thereafter trimmed with scissors to fit the filter cassette. The cassette were placed in the Microbeta and measured for 1 min/position, returning ccpm (corrected counts per minute).
b=((bmax−bmin)/(1+(I/IC50)^S))+bminI
The Microbeta-instrument generates the mean cpm (counts per minute) value/minute and corrects for individual variations between the detectors thus generating corrected cpm values.
As a reminder, the inhibition is how much of the control response was suppressed. As to `Cc1c(NS(C)(=O)=O)cccc1N(Cc1ccccc1)Cc1ccc(Oc2cccc(OCCCCC(=O)O)c2)cc1` [Example 117, 5-(3-{4-[(benzyl{2-methyl-3-[(methylsulfonyl)amino]phenyl}amino)methyl]phenoxyl}phenoxy)pentanoic acid], the inhibition at 1.7 µM is 98.1%.
Regarding `CC(=O)c1cccc(Oc2ccc(CN(Cc3ccc(F)cc3F)c3cccc(NS(C)(=O)=O)c3C)cc2)c1` [Example 140, N-{3-[[4-(3-acetylphenoxy)benzyl](2,4-difluorobenzyl)amino]-2-methylphenyl}methanesulfonamide], the inhibition at 1.7 µM stood at 88.1%.
Consider `CCOc1ccc(CN(Cc2ccc(F)cc2F)c2cccc(NS(C)(=O)=O)c2C)cc1` [Example 142, N-{3-[(2,4-difluorobenzyl)(4-ethoxybenzyl)amino]-2-methylphenyl}methanesulfonamide], for which the inhibition at 1.7 µM was 90.4%.
As for `Cc1c(NS(C)(=O)=O)cccc1N(Cc1ccccc1)Cc1ccc(-c2ccccc2C#N)cc1` [Example 146, N-(3-{benzyl[(2′-cyano-1,1′-biphenyl-4-yl)methyl]amino}-2-methylphenyl)methanesulfonamide], the inhibition at 1.7 µM was 28.1%.
Regarding `Cc1c(NS(C)(=O)=O)cccc1N(Cc1ccc(OCc2ccc3c(c2)OCO3)cc1)Cc1ccc(F)cc1F` [Example 156, N-{3-[[4-(1,3-benzodioxol-5-ylmethoxy)benzyl](2,4-difluorobenzyl)amino]-2-methylphenyl}methanesulfonamide], the inhibition at 1.7 µM worked out at 94.9%.
The same measure for `Cc1c(NS(C)(=O)=O)cccc1N(Cc1ccc(OCc2cc3c(cc2Cl)OCO3)cc1)Cc1ccc(F)cc1F` [Example 157, N-{3-[{4-[(6-chloro-1,3-benzodioxol-5-yl)methoxy]benzyl}(2,4-difluorobenzyl)amino]-2-methylphenyl}methanesulfonamide]: 91.8%; for `Cc1c(NS(C)(=O)=O)cccc1N(Cc1ccc(OCCc2ccccc2)cc1)Cc1ccc(F)cc1F` [Example 158, N-(3-{(2,4-difluorobenzyl)[4-(2-phenylethoxy)benzyl]amino}-2-methylphenyl)methanesulfonamide]: 93.1%.
In the case of `Cc1c(NS(C)(=O)=O)cccc1N(Cc1ccc(Oc2cccc(OC[C@@H]3C[C@@H](O)CC(=O)O3)c2)cc1)Cc1ccc(F)cc1F` [Example 231, N-(3-((2,4-difluorobenzyl)(4-(3-(((2S,4R)-6-oxo-4-hydroxytetrahydro-2H-pyran-2-yl)methoxy)phenoxy)benzyl)amino)-2-methylphenyl)methanesulfonamide], the inhibition at 1.7 µM is 96%.
Regarding `CCOC(=O)CCCOc1ccc(Oc2ccc(CN(Cc3ccccc3)c3cccc(NS(C)(=O)=O)c3C)cc2)cc1` [Example 232, ethyl 4-(4-{4-[(benzyl{2-methyl-3-[(methylsulfonyl)amino]phenyl}amino)methyl]phenoxy}phenoxy)butanoate], the inhibition at 1.7 µM was determined as 94.9%.
In the case of `Cc1c(NS(C)(=O)=O)cccc1N(Cc1ccccc1)Cc1ccc(Oc2ccc(OCCCC(=O)O)cc2)cc1` [Example 233, 4-(4-{4-[(benzyl{2-methyl-3-[(methylsulfonyl)amino]phenyl}amino)methyl]phenoxy}phenoxy)butanoic acid], the inhibition at 1.7 µM turned out to be 96.8%.
In the case of `Cc1c(NS(C)(=O)=O)cccc1N(Cc1ccccc1)Cc1ccc(Oc2ccc(OCCCCC(=O)O)cc2)cc1` [Example 234, 5-(4-{4-[(benzyl{2-methyl-3-[(methylsulfonyl)amino]phenyl}amino)methyl]phenoxy}phenoxy)pentanoic acid], the inhibition at 1.7 µM was determined as 96.1%.
With `CCc1ccc(Oc2ccc(CN(Cc3ccc(F)cc3F)c3cccc(NS(C)(=O)=O)c3C)cc2)cc1OCC(=O)O` [Example 236, (5-{4-[((2,4-difluorobenzyl){2-methyl-3-[(methylsulfonyl)amino]phenyl}amino)methyl]phenoxy}-2-ethylphenoxy)acetic acid], the inhibition at 1.7 µM came to 96.1%.
As to `CCCCCCc1ccc(Oc2ccc(CN(Cc3ccc(F)cc3F)c3cccc(NS(C)(=O)=O)c3C)cc2)cc1OCC(=O)O` [Example 238, (5-{4-[((2,4-difluorobenzyl){2-methyl-3-[(methylsulfonyl)amino]phenyl}amino)methyl]phenoxy}-2-hexylphenoxy)acetic acid], the inhibition at 1.7 µM came out at 94.2%.
The same measure for `CCOC(=O)CN(C)C(=O)CCCOc1cccc(Oc2ccc(CN(Cc3ccccc3)c3cccc(NS(C)(=O)=O)c3C)cc2)c1` [Example 239, ethyl N-[4-(3-{4-[(benzyl{2-methyl-3-[(methylsulfonyl)amino]phenyl}amino)methyl]phenoxy}phenoxy)butanoyl]-N-methylglycinate]: 93.4%; for `Cc1c(NS(C)(=O)=O)cccc1N(Cc1ccccc1)Cc1ccc(Oc2cccc(OCCCC(=O)N(C)CC(=O)O)c2)cc1` [Example 240, N-[4-(3-{4-[(benzyl{2-methyl-3-[(methylsulfonyl)amino]phenyl}amino)methyl]phenoxy}phenoxy)butanoyl]-N-methylglycine]: 93.3%; for `CCOC(=O)COc1cc(Oc2ccc(CN(Cc3ccc(F)cc3F)c3cccc(NS(C)(=O)=O)c3C)cc2)ccc1Cl` [Example 241, ethyl (2-chloro-5-{4-[((2,4-difluorobenzyl){2-methyl-3-[(methylsulfonyl)amino]phenyl}amino)methyl]phenoxy}phenoxy)acetate]: 90.6%.
Consider `Cc1c(NS(C)(=O)=O)cccc1N(Cc1ccccc1)Cc1ccc(C(=O)c2cccc(OCCC3CC3)c2)cc1` [Example 242, N-[3-(benzyl{4-[3-(2-cyclopropylethoxy)benzoyl]benzyl}amino)-2-methylphenyl]methanesulfonamide], for which the inhibition at 1.7 µM was 94.1%.
The same measure for `Cc1c(NS(C)(=O)=O)cccc1N(Cc1ccccc1)Cc1ccc(C(=O)c2cccc(OCC3CCCC3)c2)cc1` [Example 243, N-[3-(benzyl{4-[3-(cyclopentylmethoxy)benzoyl]benzyl}amino)-2-methylphenyl]methanesulfonamide]: 92%; for `Cc1c(NS(C)(=O)=O)cccc1N(Cc1ccccc1)Cc1ccc(C(=O)c2cccc(OCC3CCCO3)c2)cc1` (stereo not shown) [Example 244, N-[3-(benzyl{4-[3-(tetrahydrofuran-2-ylmethoxy)benzoyl]benzyl}amino)-2-methylphenyl]methanesulfonamide]: 95.3%.
For the compound `Cc1c(NS(C)(=O)=O)cccc1N(Cc1ccccc1)Cc1ccc(C(=O)c2cccc(OCC3CCOC3)c2)cc1` (stereo not shown) [Example 245, N-[3-(benzyl{4-[3-(tetrahydrofuran-3-ylmethoxy)benzoyl]benzyl}amino)-2-methylphenyl]methanesulfonamide], the inhibition at 1.7 µM was 96.3%.
The same measure for `Cc1c(NS(C)(=O)=O)cccc1N(Cc1ccccc1)Cc1ccc(C(=O)c2cccc(OCCc3ccccc3)c2)cc1` [Example 246, N-[3-(benzyl{4-[3-(2-phenylethoxy)benzoyl]benzyl}amino)-2-methylphenyl]methanesulfonamide]: 88.6%.
For the compound `Cc1c(NS(C)(=O)=O)cccc1N(Cc1ccccc1)Cc1ccc(C(=O)c2cccc(OCc3ccccc3)c2)cc1` [Example 247, N-[3-(benzyl{4-[3-(benzyloxy)benzoyl]benzyl}amino)-2-methylphenyl]methanesulfonamide], the inhibition at 1.7 µM was 90.9%.

Values taken from patent US6583180B2, “Glucocorticoid receptor modulators” (Abbott Laboratories, priority 2001, dated 2003).
